In US9781930B2, “3′-substituted-abscisic acid derivatives” (Valent BioSciences Corporation, priority 2014, dated 2017):

These molecules were tested on Arabidopsis thaliana seed (assay: Seed germination inhibition assay for testing Examples 1-28 and 47-50). Conditions: 0.01-10.0 ppm in 96-well plates, scored on day 7, relative to (S)-ABA.
Format: in vivo
Parameters: key to Arabidopsis seed germination inhibition potency: + + + +: The other derivatives were scored by potency relative to S-ABA.; (S)-ABA potency = + + +.; + +: The other derivatives were scored by potency relative to S-ABA.; ++: The other derivatives were scored by potency relative to S-ABA.; +: The other derivatives were scored by potency relative to S-ABA.; −− = no effect
Method: Seed Germination Inhibition Assay for Testing Examples 1-28 and 47-50 To determine the germination inhibition potency of the (S)-ABA derivatives, germination assays were performed with the model plant Arabidopsis thaliana. Arabidopsis seed was sterilized by shaking for five minutes in 200-proof ethanol, and followed by shaking for five minutes in a 10% bleach solution. The seeds were then washed five times in sterile, distilled, de-ionized water and suspended in 0.1% phytoagar. The tubes containing the seeds were wrapped in aluminum foil and stratified at 4° C. for two days. All compounds were tested at eight concentrations of 0 (DMSO control), 0.01, 0.03, 0.1, 0.3, 1.0, 3.0, and 10.0 ppm in 96-well plates. Each plate contained eight replicates of each concentration of the test compound and eight replicates of (S)-ABA at 0.1 ppm as the positive control. As an additional set of controls, each run of the assay also contained one plate dosed with (S)-ABA covering a range of concentrations up to 10 ppm. For each compound, 10× stock solutions corresponding to each of the tested concentrations were prepared in distilled and de-ionized water containing 5% DMSO. The stock test solution (10 μL) was added to each well according to the scheme described above, and 90 μL of ½× Murashige and Skoog media containing 1.2% Bactoagar was then added to each well (final DMSO concentration was 0.5%). When the media solidified, ten to fifteen sterile stratified Arabidopsis seeds were distributed into each well using a repeat pipettor. The plates were sealed with surgical tape and placed in a growth chamber running diurnal cycles of 12 hours of light at 24° C. and 12 hours of darkness at 19° C. The plates were scanned on days 3 through 7, and scored on day 7. The 3′-substituted-(S)-ABA derivatives were scored on ability to inhibit germination relative to the potency of (S)-ABA. The results are summarized below in “Table 1: Arabidopsis seed germination inhibition activity of (S)-ABA derivatives.”
For `CCC#CCC1=C(C)[C@](O)(/C=C/C(C)=C\C(=O)O)C(C)(C)CC1=O` [Example 48, (2Z,4E)-5-((S)-1-hydroxy-2,6,6-trimethyl-4-oxo-3-(pent-2-yn-1-yl)cyclohex-2-en-1-yl)-3-methylpenta-2,4-dienoic acid], the “Arabidopsis seed germination inhibition potency” value was “+”.
For `CC1=C(Cc2cc(F)cc(F)c2)C(=O)CC(C)(C)[C@@]1(O)/C=C/C(C)=C\C(=O)O` [Example 23, (2Z,4E)-5-((S)-3-(3,5-difluorobenzyl)-1-hydroxy-2,6,6-trimethyl-4-oxocyclohex-2-en-1-yl)-3-methylpenta-2,4-dienoic acid], the “Arabidopsis seed germination inhibition potency” value was “−−”.
`CCC1=C(C)[C@](O)(/C=C/C(C)=C\C(=O)OC)C(C)(C)CC1=O` [Example 1, (2Z,4E)-methyl 5-((S)-3-ethyl-1-hydroxy-2,6,6-trimethyl-4-oxocyclohex-2-en-1-yl)-3-methylpenta-2,4-dienoate] was tested, and the “Arabidopsis seed germination inhibition potency” value was “+ + +”.
In the case of `CCCCCC1=C(C)[C@](O)(/C=C/C(C)=C\C(=O)O)C(C)(C)CC1=O` [Example 8, (2Z,4E)-5-((S)-1-hydroxy-2,6,6-trimethyl-4-oxo-3-pentylcyclohex-2-en-1-yl)-3-methylpenta-2,4-dienoic acid], the “Arabidopsis seed germination inhibition potency” value is reported as “−−”.
With `CC1=C(Cc2ccccc2Cl)C(=O)CC(C)(C)[C@@]1(O)/C=C/C(C)=C\C(=O)O` [Example 24, (2Z,4E)-5-((S)-3-(2-chlorobenzyl)-1-hydroxy-2,6,6-trimethyl-4-oxocyclohex-2-en-1-yl)-3-methylpenta-2,4-dienoic acid] the “Arabidopsis seed germination inhibition potency” value was “−−”.
In the case of `CCCCC1=C(C)[C@](O)(/C=C/C(C)=C\C(=O)O)C(C)(C)CC1=O` [Example 6, (2Z,4E)-5-((S)-3-butyl-1-hydroxy-2,6,6-trimethyl-4-oxocyclohex-2-en-1-yl)-3-methylpenta-2,4-dienoic acid], the “Arabidopsis seed germination inhibition potency” value is reported as “+”.
For `CC1=C(CC(=O)O)C(=O)CC(C)(C)[C@@]1(O)/C=C/C(C)=C\C(=O)O` [Example 10, (2Z,4E)-5-((S)-3-(carboxymethyl)-1-hydroxy-2,6,6-trimethyl-4-oxocyclohex-2-en-1-yl)-3-methylpenta-2,4-dienoic acid], the “Arabidopsis seed germination inhibition potency” value was “−−”.
For `CC1=C(Cc2ccccc2C)C(=O)CC(C)(C)[C@@]1(O)/C=C/C(C)=C\C(=O)O` [Example 16, (2Z,4E)-5-((S)-1-hydroxy-2,6,6-trimethyl-3-(2-methylbenzyl)-4-oxocyclohex-2-en-1-yl)-3-methylpenta-2,4-dienoic acid], the “Arabidopsis seed germination inhibition potency” value was “−−”.
For `CC1=C(Cc2nc3ccccc3s2)C(=O)CC(C)(C)[C@@]1(O)/C=C/C(C)=C\C(=O)O` [Example 28, (2Z,4E)-5-((S)-3-(benzo[d]thiazol-2-ylmethyl)-1-hydroxy-2,6,6-trimethyl-4-oxocyclohex-2-en-1-yl)-3-methylpenta-2,4-dienoic acid], the “Arabidopsis seed germination inhibition potency” value was “−−”.
For `CC1=C(Cc2cccc(F)c2)C(=O)CC(C)(C)[C@@]1(O)/C=C/C(C)=C\C(=O)O` [Example 20, (2Z,4E)-5-((S)-3-(3-fluorobenzyl)-1-hydroxy-2,6,6-trimethyl-4-oxocyclohex-2-en-1-yl)-3-methylpenta-2,4-dienoic acid], the “Arabidopsis seed germination inhibition potency” value was “−−”.
`COc1cc([N+](=O)[O-])ccc1CC1=C(C)[C@](O)(/C=C/C(C)=C\C(=O)O)C(C)(C)CC1=O` [Example 27, (2Z,4E)-5-((S)-1-hydroxy-3-(2-methoxy-4-nitrobenzyl)-2,6,6-trimethyl-4-oxocyclohex-2-en-1-yl)-3-methylpenta-2,4-dienoic acid] was tested, and the “Arabidopsis seed germination inhibition potency” value was “−−”.
For `CC1=C(C/C=C/c2ccccc2)C(=O)CC(C)(C)[C@@]1(O)/C=C/C(C)=C\C(=O)O` [Example 50, (2Z,4E)-5-((S)-3-cinnamyl-1-hydroxy-2,6,6-trimethyl-4-oxocyclohex-2-en-1-yl)-3-methylpenta-2,4-dienoic acid], the “Arabidopsis seed germination inhibition potency” value was “+”.
With `CC1=C(Cc2cccc3ccccc23)C(=O)CC(C)(C)[C@@]1(O)/C=C/C(C)=C\C(=O)O` [Example 15, (2Z,4E)-5-((S)-1-hydroxy-2,6,6-trimethyl-3-(naphthalen-1-ylmethyl)-4-oxocyclohex-2-en-1-yl)-3-methylpenta-2,4-dienoic acid] the “Arabidopsis seed germination inhibition potency” value was “−−”.
With `CC1=C(C/C=C/C(=O)O)C(=O)CC(C)(C)[C@@]1(O)/C=C/C(C)=C\C(=O)O` [Example 49, (2Z,4E)-5-((S)-3-((E)-3-carboxyallyl)-1-hydroxy-2,6,6-trimethyl-4-oxocyclohex-2-en-1-yl)-3-methylpenta-2,4-dienoic acid] the “Arabidopsis seed germination inhibition potency” value was “−−”.
For `CC1=C(Cc2ccc(Cl)cc2)C(=O)CC(C)(C)[C@@]1(O)/C=C/C(C)=C\C(=O)O` [Example 25, (2Z,4E)-5-((S)-3-(4-chlorobenzyl)-1-hydroxy-2,6,6-trimethyl-4-oxocyclohex-2-en-1-yl)-3-methylpenta-2,4-dienoic acid], the “Arabidopsis seed germination inhibition potency” value was “−−”.
`CC1=C(Cc2ccc(C)cc2)C(=O)CC(C)(C)[C@@]1(O)/C=C/C(C)=C\C(=O)O` [Example 18, (2Z,4E)-5-((S)-1-hydroxy-2,6,6-trimethyl-3-(4-methylbenzyl)-4-oxocyclohex-2-en-1-yl)-3-methylpenta-2,4-dienoic acid] was tested, and the “Arabidopsis seed germination inhibition potency” value was “−−”.
In the case of `CC1=C(Cc2ccccc2)C(=O)CC(C)(C)[C@@]1(O)/C=C/C(C)=C\C(=O)O` [Example 13, (2Z,4E)-5-((S)-3-benzyl-1-hydroxy-2,6,6-trimethyl-4-oxocyclohex-2-en-1-yl)-3-methylpenta-2,4-dienoic acid], the “Arabidopsis seed germination inhibition potency” value is reported as “−−”.
For `CC1=C(CC#N)C(=O)CC(C)(C)[C@@]1(O)/C=C/C(C)=C\C(=O)O` [Example 11, (2Z,4E)-5-((S)-3-(cyanomethyl)-1-hydroxy-2,6,6-trimethyl-4-oxocyclohex-2-en-1-yl)-3-methylpenta-2,4-dienoic acid], the “Arabidopsis seed germination inhibition potency” value was “++”.
`C#CCC1=C(C)[C@](O)(/C=C/C(C)=C\C(=O)O)C(C)(C)CC1=O` [Example 5, (2Z,4E)-5-((S)-1-hydroxy-2,6,6-trimethyl-4-oxo-3-(prop-2-yn-1-yl)cyclohex-2-en-1-yl)-3-methylpenta-2,4-dienoic acid] was tested, and the “Arabidopsis seed germination inhibition potency” value was “+ + + +”.
For `CCCC1=C(C)[C@](O)(/C=C/C(C)=C\C(=O)O)C(C)(C)CC1=O` [Example 3, (2Z,4E)-5-((S)-1-hydroxy-2,6,6-trimethyl-4-oxo-3-propylcyclohex-2-en-1-yl)-3-methylpenta-2,4-dienoic acid], the “Arabidopsis seed germination inhibition potency” value was “+ +”.
`CC1=C(Cc2ccc3ccccc3c2)C(=O)CC(C)(C)[C@@]1(O)/C=C/C(C)=C\C(=O)O` [Example 14, (2Z,4E)-5-((S)-1-hydroxy-2,6,6-trimethyl-3-(naphthalen-2-ylmethyl)-4-oxocyclohex-2-en-1-yl)-3-methylpenta-2,4-dienoic acid] was tested, and the “Arabidopsis seed germination inhibition potency” value was “−−”.
In the case of `CC1=C(Cc2ccccc2F)C(=O)CC(C)(C)[C@@]1(O)/C=C/C(C)=C\C(=O)O` [Example 19, (2Z,4E)-5-((S)-3-(2-fluorobenzyl)-1-hydroxy-2,6,6-trimethyl-4-oxocyclohex-2-en-1-yl)-3-methylpenta-2,4-dienoic acid], the “Arabidopsis seed germination inhibition potency” value is reported as “−−”.
`CC1=C(Cc2ccc(F)c(F)c2)C(=O)CC(C)(C)[C@@]1(O)/C=C/C(C)=C\C(=O)O` [Example 22, (2Z,4E)-5-((S)-3-(3,4-difluorobenzyl)-1-hydroxy-2,6,6-trimethyl-4-oxocyclohex-2-en-1-yl)-3-methylpenta-2,4-dienoic acid] was tested, and the “Arabidopsis seed germination inhibition potency” value was “−−”.
For `CC1=C(Cc2ccc(F)cc2)C(=O)CC(C)(C)[C@@]1(O)/C=C/C(C)=C\C(=O)O` [Example 21, (2Z,4E)-5-((S)-3-(4-fluorobenzyl)-1-hydroxy-2,6,6-trimethyl-4-oxocyclohex-2-en-1-yl)-3-methylpenta-2,4-dienoic acid], the “Arabidopsis seed germination inhibition potency” value was “−−”.
With `CC1=C(Cc2cccc(C)c2)C(=O)CC(C)(C)[C@@]1(O)/C=C/C(C)=C\C(=O)O` [Example 17, (2Z,4E)-5-((S)-1-hydroxy-2,6,6-trimethyl-3-(3-methylbenzyl)-4-oxocyclohex-2-en-1-yl)-3-methylpenta-2,4-dienoic acid] the “Arabidopsis seed germination inhibition potency” value was “−−”.
With `C=CCC1=C(C)[C@](O)(/C=C/C(C)=C\C(=O)O)C(C)(C)CC1=O` [Example 4, (2Z,4E)-5-((S)-3-allyl-1-hydroxy-2,6,6-trimethyl-4-oxocyclohex-2-en-1-yl)-3-methylpenta-2,4-dienoic acid] the “Arabidopsis seed germination inhibition potency” value was “+ + +”.

Same assay, conditions: Arabidopsis seed germination
For `CCC1=C(C)[C@](O)(/C=C/C(C)=C\C(=O)OC)C(C)(C)CC1=O` [Example 1, (2Z,4E)-methyl 5-((S)-3-ethyl-1-hydroxy-2,6,6-trimethyl-4-oxocyclohex-2-en-1-yl)-3-methylpenta-2,4-dienoate], the “germination inhibition potency compared to (S)-ABA (in words)” value was “just as effective as (S)-ABA”.
In the case of `C#CCC1=C(C)[C@](O)(/C=C/C(C)=C\C(=O)O)C(C)(C)CC1=O` [Example 5, (2Z,4E)-5-((S)-1-hydroxy-2,6,6-trimethyl-4-oxo-3-(prop-2-yn-1-yl)cyclohex-2-en-1-yl)-3-methylpenta-2,4-dienoic acid], the “germination inhibition potency compared to (S)-ABA (in words)” value is reported as “more potent than (S)-ABA”.
For `C=CCC1=C(C)[C@](O)(/C=C/C(C)=C\C(=O)O)C(C)(C)CC1=O` [Example 4, (2Z,4E)-5-((S)-3-allyl-1-hydroxy-2,6,6-trimethyl-4-oxocyclohex-2-en-1-yl)-3-methylpenta-2,4-dienoic acid], the “germination inhibition potency compared to (S)-ABA (in words)” value was “just as effective as (S)-ABA”.
